Reference: ChEMBL document CHEMBL1131684, “Preparation of amino acid conjugates of betulinic acid with activity against human melanoma” (Bioorg Med Chem Lett, 1999)
In brackets after ≈: the same amount, converted by molar mass.

Experiments:
[1] = test system: KB; assay: In vitro cytotoxicity (antitumor activity) against human epidermoid carcinoma of mouth cell line (KB); type: functional; conditions: read-out: ED50 (the source's name)
[2] = Water solubility of the compound; type: ADME; conditions: buffer
[3] = test system: SK-MEL-2; assay: In vitro cytotoxicity (antitumor activity) against human melanoma (MEL-2) cell lines; type: functional; conditions: read-out: ED50 (the source's name)

In the case of C=C(C)[C@@H]1CC[C@]2(C(=O)N[C@@H](CCC(=O)OC)C(=O)OC)CC[C@]3(C)[C@H](CC[C@@H]4[C@@]5(C)CC[C@H](O)C(C)(C)[C@@H]5CC[C@]43C)[C@@H]12, the EC50 [1] is reported as > 20 µg/mL, the S [2] is reported as 20 Dilution factor and the EC50 [3] is reported as 15.3 µg/mL (≈ 24.9 µM).

For C=C(C)[C@@H]1CC[C@]2(C(=O)N[C@@H](Cc3ccccc3)C(=O)O)CC[C@]3(C)[C@H](CC[C@@H]4[C@@]5(C)CC[C@H](O)C(C)(C)[C@@H]5CC[C@]43C)[C@@H]12, the EC50 [1] was > 20 µg/mL and the EC50 [3] was > 20 µg/mL.

In the case of C=C(C)[C@@H]1CC[C@]2(C(=O)N3CCC[C@H]3C(=O)O)CC[C@]3(C)[C@H](CC[C@@H]4[C@@]5(C)CC[C@H](O)C(C)(C)[C@@H]5CC[C@]43C)[C@@H]12, the EC50 [1] is reported as > 20 µg/mL, the S [2] is reported as 20 Dilution factor and the EC50 [3] is reported as 13.1 µg/mL (≈ 23.7 µM).

With C=C(C)[C@@H]1CC[C@]2(C(=O)N[C@@H](Cc3ccccc3)C(=O)OC)CC[C@]3(C)[C@H](CC[C@@H]4[C@@]5(C)CC[C@H](O)C(C)(C)[C@@H]5CC[C@]43C)[C@@H]12 the EC50 [1] was > 20 µg/mL, the S [2] was 5 Dilution factor and the EC50 [3] was 9 µg/mL (≈ 14.6 µM).

In the case of C=C(C)[C@@H]1CC[C@]2(C(=O)N[C@@H](CCC(=O)O)C(=O)O)CC[C@]3(C)[C@H](CC[C@@H]4[C@@]5(C)CC[C@H](O)C(C)(C)[C@@H]5CC[C@]43C)[C@@H]12, the EC50 [1] is reported as > 20 µg/mL and the EC50 [3] is reported as > 20 µg/mL.

In the case of C=C(C)[C@@H]1CC[C@]2(C(=O)N[C@@H](Cc3ccc(O)cc3)C(=O)O)CC[C@]3(C)[C@H](CC[C@@H]4[C@@]5(C)CC[C@H](O)C(C)(C)[C@@H]5CC[C@]43C)[C@@H]12, the EC50 [1] is reported as > 20 µg/mL and the EC50 [3] is reported as > 20 µg/mL.

For C=C(C)[C@@H]1CC[C@]2(C(=O)N[C@@H](Cc3ccc(O)cc3)C(=O)OC)CC[C@]3(C)[C@H](CC[C@@H]4[C@@]5(C)CC[C@H](O)C(C)(C)[C@@H]5CC[C@]43C)[C@@H]12, the EC50 [1] was > 20 µg/mL and the EC50 [3] was > 20 µg/mL.

C=C(C)[C@@H]1CC[C@]2(C(=O)N[C@@H](C)C(=O)O)CC[C@]3(C)[C@H](CC[C@@H]4[C@@]5(C)CC[C@H](O)C(C)(C)[C@@H]5CC[C@]43C)[C@@H]12 showed an EC50 [1] of 4.6 µg/mL (≈ 8.72 µM), an S [2] of 50 Dilution factor and an EC50 [3] of 1.5 µg/mL (≈ 2.84 µM).

With C=C(C)[C@@H]1CC[C@]2(C(=O)O)CC[C@]3(C)[C@H](CC[C@@H]4[C@@]5(C)CC[C@H](O)C(C)(C)[C@@H]5CC[C@]43C)[C@@H]12 [BETULINIC ACID] the EC50 [1] was > 20 µg/mL, the S [2] was < 5 Dilution factor and the EC50 [3] was 4.2 µg/mL (≈ 9.2 µM).

For C=C(C)[C@@H]1CC[C@]2(C(=O)N[C@H](C(=O)OC)C(C)C)CC[C@]3(C)[C@H](CC[C@@H]4[C@@]5(C)CC[C@H](O)C(C)(C)[C@@H]5CC[C@]43C)[C@@H]12, the EC50 [1] was > 20 µg/mL, the S [2] was 5 Dilution factor and the EC50 [3] was 2.1 µg/mL (≈ 3.69 µM).

With C=C(C)[C@@H]1CC[C@]2(C(=O)N[C@@H](C)C(=O)OC)CC[C@]3(C)[C@H](CC[C@@H]4[C@@]5(C)CC[C@H](O)C(C)(C)[C@@H]5CC[C@]43C)[C@@H]12 the EC50 [1] was > 20 µg/mL, the S [2] was 30 Dilution factor and the EC50 [3] was 3.5 µg/mL (≈ 6.46 µM).

With C=C(C)[C@@H]1CC[C@]2(C(=O)N[C@@H](CC(=O)OC)C(=O)OC)CC[C@]3(C)[C@H](CC[C@@H]4[C@@]5(C)CC[C@H](O)C(C)(C)[C@@H]5CC[C@]43C)[C@@H]12 the EC50 [1] was > 20 µg/mL and the EC50 [3] was > 20 µg/mL.

With C=C(C)[C@@H]1CC[C@]2(C(=O)N[C@@H](Cc3c[nH]c4ccccc34)C(=O)O)CC[C@]3(C)[C@H](CC[C@@H]4[C@@]5(C)CC[C@H](O)C(C)(C)[C@@H]5CC[C@]43C)[C@@H]12 the EC50 [1] was > 20 µg/mL, the S [2] was 10 Dilution factor and the EC50 [3] was 8.6 µg/mL (≈ 13.4 µM).

With C=C(C)[C@@H]1CC[C@]2(C(=O)N[C@@H](CCSC)C(=O)O)CC[C@]3(C)[C@H](CC[C@@H]4[C@@]5(C)CC[C@H](O)C(C)(C)[C@@H]5CC[C@]43C)[C@@H]12 the EC50 [1] was > 20 µg/mL, the S [2] was 5 Dilution factor and the EC50 [3] was 9 µg/mL (≈ 15.3 µM).

In the case of C=C(C)[C@@H]1CC[C@]2(C(=O)N3CCC[C@H]3C(=O)OC)CC[C@]3(C)[C@H](CC[C@@H]4[C@@]5(C)CC[C@H](O)C(C)(C)[C@@H]5CC[C@]43C)[C@@H]12, the EC50 [1] is reported as > 20 µg/mL and the EC50 [3] is reported as > 20 µg/mL.

For C=C(C)[C@@H]1CC[C@]2(C(=O)NCC(=O)OC)CC[C@]3(C)[C@H](CC[C@@H]4[C@@]5(C)CC[C@H](O)C(C)(C)[C@@H]5CC[C@]43C)[C@@H]12, the EC50 [1] was > 20 µg/mL, the S [2] was 50 Dilution factor and the EC50 [3] was 10.2 µg/mL (≈ 19.3 µM).

With C=C(C)[C@@H]1CC[C@]2(C(=O)N[C@@H](CC(C)C)C(=O)OC)CC[C@]3(C)[C@H](CC[C@@H]4[C@@]5(C)CC[C@H](O)C(C)(C)[C@@H]5CC[C@]43C)[C@@H]12 the EC50 [1] was > 20 µg/mL, the S [2] was 5 Dilution factor and the EC50 [3] was 6.2 µg/mL (≈ 10.6 µM).

With C=C(C)[C@@H]1CC[C@]2(C(=O)N[C@@H](CC(=O)O)C(=O)O)CC[C@]3(C)[C@H](CC[C@@H]4[C@@]5(C)CC[C@H](O)C(C)(C)[C@@H]5CC[C@]43C)[C@@H]12 the EC50 [1] was > 20 µg/mL and the EC50 [3] was > 20 µg/mL.

In the case of C=C(C)[C@@H]1CC[C@]2(C(=O)N[C@H](C(=O)O)[C@@H](C)CC)CC[C@]3(C)[C@H](CC[C@@H]4[C@@]5(C)CC[C@H](O)C(C)(C)[C@@H]5CC[C@]43C)[C@@H]12, the EC50 [1] is reported as > 20 µg/mL and the EC50 [3] is reported as > 20 µg/mL.

In the case of C=C(C)[C@@H]1CC[C@]2(C(=O)N[C@@H](CC(C)C)C(=O)O)CC[C@]3(C)[C@H](CC[C@@H]4[C@@]5(C)CC[C@H](O)C(C)(C)[C@@H]5CC[C@]43C)[C@@H]12, the EC50 [1] is reported as > 20 µg/mL, the S [2] is reported as 10 Dilution factor and the EC50 [3] is reported as 9 µg/mL (≈ 15.8 µM).

Work on C=C(C)[C@@H]1CC[C@]2(C(=O)N[C@H](C(=O)O)C(C)C)CC[C@]3(C)[C@H](CC[C@@H]4[C@@]5(C)CC[C@H](O)C(C)(C)[C@@H]5CC[C@]43C)[C@@H]12 yielded an EC50 [1] of 9 µg/mL (≈ 16.2 µM), an S [2] of 20 Dilution factor and an EC50 [3] of 9 µg/mL (≈ 16.2 µM).

For C=C(C)[C@@H]1CC[C@]2(C(=O)N[C@@H](CCSC)C(=O)OC)CC[C@]3(C)[C@H](CC[C@@H]4[C@@]5(C)CC[C@H](O)C(C)(C)[C@@H]5CC[C@]43C)[C@@H]12, the EC50 [1] was > 20 µg/mL, the S [2] was 5 Dilution factor and the EC50 [3] was 12.8 µg/mL (≈ 21.3 µM).

With C=C(C)[C@@H]1CC[C@]2(C(=O)N[C@H](C(=O)OC)[C@@H](C)CC)CC[C@]3(C)[C@H](CC[C@@H]4[C@@]5(C)CC[C@H](O)C(C)(C)[C@@H]5CC[C@]43C)[C@@H]12 the EC50 [1] was > 20 µg/mL and the EC50 [3] was > 20 µg/mL.

For C=C(C)[C@@H]1CC[C@]2(C(=O)NCC(=O)O)CC[C@]3(C)[C@H](CC[C@@H]4[C@@]5(C)CC[C@H](O)C(C)(C)[C@@H]5CC[C@]43C)[C@@H]12, the EC50 [1] was > 20 µg/mL, the S [2] was 100 Dilution factor and the EC50 [3] was 4.2 µg/mL (≈ 8.17 µM).

In the case of C=C(C)[C@@H]1CC[C@]2(C(=O)N[C@@H](Cc3c[nH]c4ccccc34)C(=O)OC)CC[C@]3(C)[C@H](CC[C@@H]4[C@@]5(C)CC[C@H](O)C(C)(C)[C@@H]5CC[C@]43C)[C@@H]12, the EC50 [1] is reported as > 20 µg/mL and the EC50 [3] is reported as > 20 µg/mL.
